This is an account of results in patent US10350203B2, “Multidrug infusion for pain control” (priority 2014, dated 2019).

For data set [1] the following is noted: intrathecal, combined with opioids, up to more than 30 mg/day; cited from earlier work.
For data set [2], the system named is pain due to severe spastic right hemiparesis post stroke. Conditions: for pain relief: human, in vivo, iv.
Data set [3] concerns spinal tissue or meninges. To be noted: dog, in vivo, 1 mg/kg; cited from earlier work.
The next data set has as its system gliosis. To be noted: rat, in vivo; cited from earlier work.
Data set [4] relates to hyperalgesia and allodynia. To be noted: rat, in vivo; cited from earlier work.
Another data set concerns pain. Conditions: in vivo; cited from earlier work.
For another data set, the system named is spinal cord. To be noted: in vivo; cited from earlier work.

For the compound `CCCCN1CCCCC1C(=O)Nc1c(C)cccc1C` (stereo not shown) [bupivacaine], the “bladder dysfunction or muscle weakness” value in data set [1] is given as “did not cause bladder dysfunction or muscle weakness”.

As for `CNC1(c2ccccc2Cl)CCCCC1=O` (stereo not shown) [ketamine], the pain relief entry in data set [2] was “did not provide any relief”. The tolerability result in data set [2] (intravenous infusions) was “well tolerated”. Besides, in data set [3], the “histological alterations of spinal tissue or meninges” value was “no histological alterations”.

Take `O=C1CC[C@@]2(O)[C@H]3Cc4ccc(O)c5c4[C@@]2(CCN3CC2CC2)[C@H]1O5` [naltrexone]: the gliosis entry in the data set with gliosis is listed as “attenuates gliosis”.

For `C=CCN1CC[C@]23c4c5ccc(O)c4O[C@H]2C(=O)CC[C@@]3(O)[C@H]1C5` [naloxone], in data set [4], the “effect on antihyperalgesia and antiallodynia effects of morphine” value was “enhanced”. In the data set on pain, the “effect on morphine analgesic effect” value was “dramatically enhanced” and the side effects result is given as “without apparent side effects”. Besides, in the data set with spinal cord, the “signs of spinal cord toxicity” value was “have not demonstrated signs of spinal cord toxicity”.

In the case of `NCC(CC(=O)O)c1ccc(Cl)cc1` (stereo not shown) [Baclofen], the pain relief result in data set [2] is “no relief”.
